This data set can be described thus: primary cutaneous irritation test. The data set is classed as in vivo, lapin. Particulars: rabbit; compared with other allethrin isomers, natural pyrethrin, or hydrocarbon-containing compositions. An excerpt:
Le pouvoir irritant des compositions selon l'invention a été étudié chez le lapin, par un test d'irritation cutanée primaire, dont les conditions de réalisation sont définies dans le Journal Officiel de la République Française du 21 avril 1971, complété par celui du 5 juin 1973. Il a été comparé à celui des compositions où des pyréthrines naturelles remplaçaient les pyréthrinoldes de l'invention et à celui de compositions résultant du mélange des pyréthrinoides et d'huile de vaseline ou d'isododécane.

Molecules are shown by their SMILES.

Here are results for one compound from patent publication EP0150638A1, “Pyrethroid composition for the local treatment of skin diseases” (CENTRE DE RECHERCHE D'APPLICATIONS PHARMACEUTIQUES …, priority 1983, dated 1985).

For `C=CCC1=C(C)[C@@H](OC(=O)[C@@H]2[C@@H](C=C(C)C)C2(C)C)CC1=O` [pyréthrinoide de l'exemple 1, d-transchrysanthémate de d-alléthrolone], the “pouvoir irritant (comparison in words)” value was “beaucoup moins irritant”.
